Data from patent publication US10738028B2, “Spiro three-membered ring, spiro five-membered ring peptide deformylase inhibitor and use thereof in antibacteria and anti-tumor” (priority 2016, dated 2020).

Legend:
Format in all cases: cell-based
[1] = system: methicillin-resistant Staphylococcus aureus (MRSA); assay: MIC, two-fold agar dilution (CLSI), clinical isolates
Excerpt: (§1) 1. The invention adopts the two-fold agar dilution method recommended by the operating procedure of antimicrobial susceptibility testing set by American Clinical and Laboratory Standards Institute (CLSI) to determine the Minimum Inhibitory Concentration (MIC) of the test samples against the tested strains.

[2] = system: methicillin-sensitive Staphylococcus epidermidis (MSSE); assay: as above
Excerpt: as §1

[3] = system: Streptococcus pneoumoniae (SPN); assay: as above
Excerpt: as §1

[4] = system: Escherichia coli (including ESBLs, non-ESBLs); assay: as above
Excerpt: as §1

[5] = system: Enterococcus faecium (EFM); assay: as above
Excerpt: as §1

[6] = system: Enterococcus faecalis (EFA); assay: as above
Excerpt: as §1

[7] = system: Moraxella catarrhalis (BCA); assay: as above
Excerpt: as §1

[8] = system: methicillin-resistant Staphylococcus epidermidis (MRSE); assay: as above
Excerpt: as §1

[9] = system: methicillin-sensitive Staphylococcus aureus (MSSA); assay: as above
Excerpt: as §1

[10] = system: HCT-116 colorectal cancer cell line; assay: CCK-8 proliferation inhibition; conditions: Homo sapiens, HCT-116, 72 h, concentration of 30 μM; 72 hours; CCK-8; read-out: HCT116 inhibition rate/%
Procedure, shortened: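 HCT-116 cells, seeded at 2000 cells/well in McCoy's 5A with 10% newborn bovine serum, were cultured overnight at 37° C., 5% CO2, then exposed to compound dilutions in medium for 72 hours. Viability was read with 1:10 diluted CCK-8; controls received 1‰ DMSO.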

Structure (SMILES): CCCC[C@H](CC(=O)NO)C(=O)N1CC2(CC2)C[C@H]1C(=O)Nc1cnccn1 [Example 44]
- Anti-bacterial activity (MIC), strain MRSA 15-1 ([1]; clinical isolate MRSA 15-1): 0.5 µg/mL
- Anti-bacterial activity (MIC), strain MRSA 15-2 ([1]; clinical isolate MRSA 15-2): 1 µg/mL
- Anti-bacterial activity (MIC), strain MRSA 15-3 ([1]; clinical isolate MRSA 15-3): 1 µg/mL
- Anti-bacterial activity (MIC), strain MRSA 15-4 ([1]; clinical isolate MRSA 15-4): 1 µg/mL
- Anti-bacterial activity (MIC), strain MSSE 15-3 ([2]; clinical isolate MSSE 15-3): 1 µg/mL
- Anti-bacterial activity (MIC), strain MSSE 15-4 ([2]; clinical isolate MSSE 15-4): 1 µg/mL
- Anti-bacterial activity (MIC), strain MSSE 15-5 ([2]; clinical isolate MSSE 15-5): 1 µg/mL
- Anti-bacterial activity (MIC), strain MSSE 15-6 ([2]; clinical isolate MSSE 15-6): 1 µg/mL
- Anti-bacterial activity (MIC), strain SPN 16-2 ([3]; clinical isolate SPN 16-2): 1 µg/mL
- Anti-bacterial activity (MIC), strain SPN 16-4 ([3]; clinical isolate SPN 16-4): 1 µg/mL
- Anti-bacterial activity (MIC), strain ECO+ 15-1 ([4]; clinical isolate ECO+ 15-1): 32 µg/mL
- Anti-bacterial activity (MIC), strain ECO+ 15-2 ([4]; clinical isolate ECO+ 15-2): > 32 µg/mL
- Anti-bacterial activity (MIC), strain ECO+ 15-3 ([4]; clinical isolate ECO+ 15-3): > 32 µg/mL
- Anti-bacterial activity (MIC), strain ECO+ 15-4 ([4]; clinical isolate ECO+ 15-4): 1 µg/mL
- Anti-bacterial activity (MIC), strain ECO− 15-1 ([4]; clinical isolate ECO− 15-1): 32 µg/mL
- Anti-bacterial activity (MIC), strain ECO− 15-2 ([4]; clinical isolate ECO− 15-2): > 32 µg/mL
- Anti-bacterial activity (MIC), strain ECO− 15-3 ([4]; clinical isolate ECO− 15-3): > 32 µg/mL
- Anti-bacterial activity (MIC), strain ECO− 15-4 ([4]; clinical isolate ECO− 15-4): > 32 µg/mL
- Anti-bacterial activity (MIC), strain EFM 15-1 ([5]; clinical isolate EFM 15-1): > 32 µg/mL
- Anti-bacterial activity (MIC), strain EFM 15-2 ([5]; clinical isolate EFM 15-2): > 32 µg/mL
- Anti-bacterial activity (MIC), strain EFM 15-3 ([5]; clinical isolate EFM 15-3): > 32 µg/mL
- Anti-bacterial activity (MIC), strain EFM 15-4 ([5]; clinical isolate EFM 15-4): > 32 µg/mL
- Anti-bacterial activity (MIC), strain EFM 15-5 ([5]; clinical isolate EFM 15-5): 1 µg/mL
- Anti-bacterial activity (MIC), strain EFM 15-6 ([5]; clinical isolate EFM 15-6): 2 µg/mL
- Anti-bacterial activity (MIC), strain EFA 15-1 ([6]; clinical isolate EFA 15-1): > 32 µg/mL
- Anti-bacterial activity (MIC), strain EFA 15-2 ([6]; clinical isolate EFA 15-2): > 32 µg/mL
- Anti-bacterial activity (MIC), strain EFA 15-3 ([6]; clinical isolate EFA 15-3): > 32 µg/mL
- Anti-bacterial activity (MIC), strain EFA 15-4 ([6]; clinical isolate EFA 15-4): > 32 µg/mL
- Anti-bacterial activity (MIC), strain EFA 15-5 ([6]; clinical isolate EFA 15-5): > 32 µg/mL
- Anti-bacterial activity (MIC), strain EFA 15-6 ([6]; clinical isolate EFA 15-6): > 32 µg/mL
- Anti-bacterial activity (MIC), strain EFA 15-9 ([6]; clinical isolate EFA 15-9): 32 µg/mL
- Anti-bacterial activity (MIC), strain BCA 14-1 ([7]; clinical isolate BCA 14-1): 4 µg/mL
- Anti-bacterial activity (MIC), strain BCA 14-4 ([7]; clinical isolate BCA 14-4): 4 µg/mL
- Anti-bacterial activity (MIC), strain BCA 14-5 ([7]; clinical isolate BCA 14-5): 1 µg/mL
- Anti-bacterial activity (MIC), strain BCA 14-6 ([7]; clinical isolate BCA 14-6): 2 µg/mL
- Anti-bacterial activity (MIC), strain BCA 14-7 ([7]; clinical isolate BCA 14-7): 4 µg/mL
- Anti-bacterial activity (MIC), strain BCA 14-8 ([7]; clinical isolate BCA 14-8): 4 µg/mL
- Anti-bacterial activity (MIC), strain BCA 14-10 ([7]; clinical isolate BCA 14-10): 2 µg/mL
- Anti-bacterial activity (MIC), strain MRSE 15-1 ([8]; clinical isolate MRSE 15-1): 1 µg/mL
- Anti-bacterial activity (MIC), strain MRSE 15-2 ([8]; clinical isolate MRSE 15-2): 1 µg/mL
- Anti-bacterial activity (MIC), strain MRSE 15-3 ([8]; clinical isolate MRSE 15-3): 1 µg/mL
- Anti-bacterial activity (MIC), strain MRSE 15-7 ([8]; clinical isolate MRSE 15-7): 1 µg/mL
- Anti-bacterial activity (MIC), strain MSSA 15-3 ([9]; clinical isolate MSSA 15-3): 0.5 µg/mL
- Anti-bacterial activity (MIC), strain MSSA 15-4 ([9]; clinical isolate MSSA 15-4): 1 µg/mL
- Anti-bacterial activity (MIC), strain MSSA 15-5 ([9]; clinical isolate MSSA 15-5): 1 µg/mL
- Anti-bacterial activity (MIC), strain MSSA 15-6 ([9]; clinical isolate MSSA 15-6): > 32 µg/mL
- inhibition at 30 µM [10]: 21%
